Here are results for one substance from US6627664B2, “Perylenequinones for use as sonosensitizers” (Altachem Pharma Ltd., priority 2001, dated 2003).

Data set [1] has as its system EMT6/Ed cells. Briefly: Cellular uptake by 14C-labeling and confocal laser scanning microscopy. Conditions: CLSM.
A further data set has as its system EMT6/Ed tumors. Briefly: EMT6/Ed tumor control after 630 nm light applied transcutaneously. Conditions: 50 μmol/kg body weight. It counts as in vivo, Balb/c mice. The procedure:
Both the concentration of drug and the dosage of light are important for treatment of tumors.
EMT6/Ed tumor control in Balb/c mice following various doses of 630 nm light applied transcutaneously. HBEA-R1 was administered at a fixed dose. True control represents animals given neither photosensitizer nor laser light. The animals were treated approximately 7 days following tumor implantation, and euthanized when tumors reached four times treatment volume.

Another data set relates to cells. The text has this: As used herein, “photopotentiation factor” refers to the property of the compound(s) to exert light- or sound-mediated toxicity in excess of its (their) inherent unactivated toxicity. […] Where the term “LD50” has been used above, the term “IC50” may be substituted, to address the bioassays that concern metabolic activity rather than the endpoint of lethality, loss of reproductive capability, or clonogenic death. The relative photoactivation efficiency of a compound may also be determined using a clonogenic assay, an assay that is well known to those skilled in the art.
In accordance with the present invention, a desirable PQP derivative is one that is non-toxic (or of low toxicity) at high drug concentrations without activation, i.e., without light (also referred to as “dark”), and/or without sound, and is toxic at low concentrations when light of the appropriate wavelength, or sound of the appropriate frequency, is applied. As is recognized by those skilled in the art, the most desirable compounds are those that provide a wide range of non-toxic doses in an unactivated state, as this characteristic provides an increased safety factor for the patient.

The nature of data set [2]: Singlet oxygen (1O2) yield. It counts as physicochemical.
For data set [3], the system named is EMT6/Ed cells. Kind of data set: Propidium iodide determination of apoptotic nuclei. Format: cell-based. The source says: The background frequency of cells with apoptotic morphology is represented by the untreated control.
Another data set deals with cell suspension. Kind of data set: Oxygen dependency of phototoxicity. Format: cell-based. The settings on record: total absence of oxygen. The source says:
Phototoxicity diminishes as the pO2 in the gas phase of the cell suspension is reduced for PDT treatment, from ambient to 0.0%. The oxygen enhancement ratio (O.E.R.) Is 4.0 at the D0.

Bounds are passed on as bounds.

For the substance Ethanolamine-HB [HBEA-R1], the “time until uptake is complete” value with EMT6/Ed cells [1] is at most 2 h. Besides, the cure rate in the data set on EMT6/Ed tumors (50 Joules of 630 nm light) is recorded as 40%. Besides, the tumor cure result with EMT6/Ed tumors (100 Joules of 630 nm light) was “approximately 90%”. In the data set with EMT6/Ed tumors (lower light dosages), the cure rates result is recorded as “significantly lower”. The “Photopotentiation Factor” value in the data set with cells (LD50 dark divided by LD50 light) is 100-167. In the data set with cells (light dose not fixed, 0.75-1.0 J/cm2 of 630 nm light), the “LD50 Light” value came to 0.15 µM. In addition, the “cell killing with light” value with cells (wavelengths between at least 630 and 688 nm) is reported as “capable of killing cells”. In the data set on cells (without light), the “LD50 Dark” value fell in the range of 15 to 25 µM. Also, the “^1O2 Yield” value in data set [2] is listed as 0.60. This substance had an apoptotic morphology with EMT6/Ed cells [3] (PDT, within 48 hours of treatment) of 50%. Further, the “induction of apoptosis by sensitizer alone” value with EMT6/Ed cells [3] (photosensitizing concentrations, no light) is given as “do not induce apoptosis”. Besides, the phototoxicity without oxygen result with cell suspension is recorded as “Evidence of type 1—mediated phototoxicity”.
